According to patent US6989375B2, “Enhanced expression of transgenes” (priority 1996, dated 2006):

What was measured:
[1] = tested on: H1299 cells; test: Cell growth after 24-hour incubation with CDDP; assay type: cell-based, human
[2] = tested on: H1299 cells; test: Quantitation of β-gal gene expression by ONPG assay at increasing MOI; assay type: cell-based, human; conditions: for Enhancement index: CDDP 0.062 μg/ml×24 h; for β-gal activity (ONPG): CDDP = cells treated 0.062 μg/ml×24 h, infected 2 days later, Ad/CMV/β-gal = control cells without CDDP
Experimental: (§1) Quantitation of β-gal Gene Expression: Adenoviral infection was performed 2 days after exposure to CDDP (0.062 μg/ml×24 hours), with cell extracts being obtained 24 hours later and quantitatively assayed for the expression of the β-galactosidase gene using O-nitrophenyl β-d-galactoside (ONPG) as a substrate (MacGregor et al., 1987). The magnitude of CDDP-induced enhancement of gene expression at a given MOI was determined by calculating the enhancement index: [formula] In Vivo CDDP-Induced Enhancement of β-gal Gene Expression
(§2) To determine if prior incubation of target cells with CDDP would result in an increase in the ability of cells to take up gene-delivering vectors or an increase in the expression of successfully delivered genes, β-gal gene expression was quantitated in H1299 and H460 cell lines treated with CDDP and then infected with Ad/CMV/β-gal at increasing MOI's. If CDDP mediates an enhancement of adenovirus uptake as compared to non-treated controls, then there should be a proportional increase in enhancement indices with increasing MOI's. […] Similarly, β-gal gene expression in CDDP-treated H460 cells increased from 0.28±0.06 to 12.2±2.1 U/mg protein, as compared to β-gal gene expression in control H460 cells of 0.056±0.016 to 7.6±1.8 U/mg protein. The enhancement indices in H460 cells, therefore, decreased from a value of 5 at an MOI of 5, to a value of 1.6 at an MOI of 100 (FIG. 2B). This observation implies that CDDP induces an increase in the expression of successfully delivered genes and not an increase in adenovirus uptake.

[3] = tested on: H460 cells; test: as above; assay type: cell-based, human; conditions: for β-gal gene expression (ONPG): CDDP = treated cells, Ad/CMV/β-gal = control cells without CDDP
Experimental: as §1, §2

[4] = tested on: A549; test: β-gal expression by X-gal staining after Ad/CMV/β-gal infection of CDDP-treated cells; assay type: cell-based, human; conditions: gene transfer 48 hours after exposure to 0.062 μg/ml of CDDP; MOI=10
Experimental: (§3) The human non-small cell lung carcinoma cell lines H1299 and H460 were grown in RPMI-1640 medium supplemented with 5% heat-inactivated fetal calf serum (FCS), 10 mM glutamine, 100 units/ml of penicillin, 100 μg/ml of streptomycin and 0.25 μg/ml of amphotericin B. Human non-small cell lung carcinoma cell lines H358, H226br, and the cervical cancer cell line SiHa were maintained in complete RPMI-1640 medium supplemented with 10% FCS. The cell line A549 (human, non-small cell lung carcinoma) was grown in Ham's F12 nutrient mixture solution (Gibco BRL, Gaithersburg, Md.) similarly supplemented with antibiotics, glutamine and 10% FCS.
(§4) Gene Delivery Protocol: In vitro gene delivery was performed by incubating cells in six-well plates (Falcon Plastics, Lincoln Park, N.J.) for two hours with Adv/CMV/β-gal in appropriate medium supplemented with 2% FCS. The multiplicity of infection (MOI: number of viral particles per target cell) was based on cell counts of untreated wells. Fresh, complete medium with the appropriate concentration of FCS was then added to the wells at the end of the infection period and cells were then incubated for 20 hours at 37° C., 5% CO2. […] The transduction efficiency by Adv/CMV/β-gal was determined by the percentage of positive stained cells (blue) for β-galactosidase activity (1000 cells counted per well).

[5] = tested on: primary normal human bronchial epithelial (NHBE) cells; test: β-gal expression by X-gal staining after Ad/CMV/β-gal infection of CDDP-treated normal cells; assay type: cell-based; conditions: CDDP 0.062 μg/ml; 90% confluent
Experimental: as §3, §4

[6] = tested on: H1299 cells; test: Cell proliferation assay (daily cell counts); assay type: cell-based, human; conditions: for Increased inhibition of tumor proliferation compared to cells transfected with Adv/CMV/p53 only: CDDP 48 hrs prior to Adv/CMV/p53 (MOI 5)
Experimental: H1299 cells were exposed to CDDP (0.062 μg/ml of medium) for 24 hrs. Cells were then washed twice with PBS, trypsinized and seeded in 6-well plates (10^5 cells/well). Forty eight hours later, cells were infected with Ad/CMV/p53 at the multiplicity of infection (MOI) of 5. Daily cell counts were performed for 5 days following transfection to study the tumor suppression effect of the combination of sequential CDDP and adenovirus-mediated p53 gene transfer. Controls consisted of untreated cells or cells exposed to CDDP only, cells transfected with Ad/CMV/p53 only and cells transfected with d1312 (similar MOI) with or without prior CDDP treatment.

[7] = tested on: p53 protein in H1299 cells; test: Western blot analysis of p53 protein expression with densitometry; assay type: cell-based, human; conditions: CDDP = prior CDDP exposure, Adv/CMV/p53 = without prior CDDP
Experimental: H1299 cells were infected with Ad/CMV/p53 (MOI=1) 48 hrs after CDDP exposure. Cells were then harvested at 6, 12, 24, 36 and 48 hrs after transfection for Western blot analysis of p53 protein expression, as described elsewhere (Diller et al., 1990). Unexposed cells similarly transfected with Ad/CMV/p53 were used as controls. The human NSCLC cell line H322 which overexpresses mutant p53 protein was used as a positive control. Relative quantities of exogenous p53 protein were determined by densitometer (Molecular Dynamics, Sunnyvale, Calif.).

[8] = tested on: p53 protein in H1299 cells; test: p53 immunocytochemical staining; assay type: cell-based, human; conditions: 24 hrs after p53 gene transfer (MOI=5); prior CDDP exposure
Experimental: The infected cells were fixed 3.8% formalin at 12 and 24 hrs after transfection with Adv/CMV/p53 (MOI=5) with or without prior CDDP exposure and treated with 3% H2O2 in methanol for 5 minutes. The Vectastain kit (Vector Laboratories, Burlingana, Calif.) was used for the immunocytochemical staining. The primary antibody used was the mouse monoclonal anti-p53 antibody Pab 1801 (Oncogene Science, Manhasset, N.Y.). The secondary antibody was the biotinylated anti-mouse IgG antibody (Vector Laboratories). The avidin-biotin-peroxidase complex (ABC) kit was used to detect the antigen-antibody complex. The cells were counterstained with Harris Hematoxylin (Sigma, St. Louis, Mo.) and mounted with cover slips using Cytoseal 60.

[9] = tested on: CDDP-resistant ovarian carcinoma cells (2008); conditions: CDDP four to six weeks prior (in vitro) or once one week prior (in vivo); cited from earlier work

For `N.N.[Cl][Pt][Cl]` [CDDP, cis-dichlorodimminocisplatin], the “Cell growth, initial response” value ([1]; CDDP at 1 and 4 μg/ml for 24 hours, cells viable by trypan blue exclusion) was “significant depression of growth to complete inhibition of proliferation”, the “Cell growth compared to control cell populations” value ([1]; CDDP concentrations lower than 0.25 μg/ml) was “remained unchanged” and the Enhancement index ([2]; MOI 5) was 3. For the same molecule, the “β-gal activity (ONPG)” value ([2]; MOI 5) was 2.2±0.40 U/mg protein, the Enhancement index ([2]; MOI 100) was 2.5 and the “β-gal activity (ONPG)” value ([2]; MOI 100) was 42.0±2.6 U/mg protein. The “β-gal gene expression (ONPG)” value ([3]; MOI 5) was 0.28±0.06 U/mg protein, the “β-gal gene expression (ONPG)” value ([3]; MOI 100) was 12.2±2.1 U/mg protein and the Enhancement index ([3]; MOI of 5) was 5. The Enhancement index ([3]; MOI of 100) was 1.6, the “Magnitude of maximal enhancement of transgene expression (FIG. 4B)” value [4] was 1.6 fold and the “Enhancement of gene expression in stationary normal cells” value [5] was “failed to enhance gene expression”. The “Effect on cell growth in vitro” value ([6]; CDDP 0.0625 μg/ml for 24 hrs, alone) was “no effect on cell growth”, the “Increased inhibition of tumor proliferation compared to cells transfected with Adv/CMV/p53 only” value ([6]; day 3 after p53 transfer) was 61% and the “Increased inhibition of tumor proliferation compared to cells transfected with Adv/CMV/p53 only” value ([6]; day 5 after p53 transfer) was 55%. For the same molecule, the “Relative level of p53 protein (normalized for β-actin)” value ([7]; 12 hrs after Adv/CMV/p53 transfection (MOI=1)) was 0.73, the “Relative level of p53 protein (normalized for β-actin)” value ([7]; 24 hrs after Adv/CMV/p53 transfection (MOI=1)) was 1.39 and the “Relative level of p53 protein (normalized for β-actin)” value ([7]; 36 hrs after Adv/CMV/p53 transfection (MOI=1)) was 1.49. For the same molecule, the “Relative level of p53 protein (normalized for β-actin)” value ([7]; 48 hrs after Adv/CMV/p53 transfection (MOI=1)) was 1.20, the p53 immunocytochemical staining [8] was “almost all of the CDDP-treated cells stained positive” and the “Gene transduction after CDDP exposure prior to liposome-mediated gene transfer” value [9] was “enhanced gene transduction”.
